Read-outs that look alike come from different tables or passages of the source. A value given as a limit tells only on which side of the number the result lay.

The text below walks through data of patent publication US9796700B2 (Celgene CAR LLC, priority 2013, dated 2017).

Experiment [1] relates to ERK1 phosphorylation of its substrate RSK in HT29 cells. Description: pRSK MSD Assay in HT29 cells. In kind it is cell-based. To be noted: read-out: ERK1 PRSK MSD HT29 EC50. As to the method:
The protocol below describes an assay to measure the kinase activity of ERK1 to phosphorylate its substrate, RSK, in the presence of a test compound. This experiment was conducted using a Mesoscale Discovery plate. The day before the assay, HT29 cells were split and plated at 50,000 cells/well in complete growth media. After allowing cells to adhere, the media was removed and replaced with media containing 0.1% FBS and incubated overnight. Blank MDS plates were coated with 25 μl/well RSK capture antibody and incubated at 4° C. overnight. The next day, the media was removed and replaced with 100 μl of media containing a test compound and incubated for 120 minutes at 37° C. The media was removed and replaced with 55 μl of well lysis buffer with protease and phosphatase inhibitors provided in the kit, followed by incubation at 4° C. for 30 minutes. 50 μl of lysate was transferred to a blocked MSD plate, followed by incubation at room temperature for 2 hours under constant shaking. The plate was washed 3 times with MSD wash buffer (cat#R617TX), and 25 μl/well phospho-RSK (pRSK) detection antibody was added with an appropriate Sulfo-tagged anti-species detection antibody diluted in 1% BSA in MSD wash buffer. This mixture was incubated for 1 hour at room temperature under constant shaking. The plate was washed 3 times, and 150 μl 1×MSD read buffer was added, followed by signal detection in an MSD plate reader.

For a further experiment, the target named is Erk1 (Homo sapiens (Human), UniProt P27361). Kind of experiment: Protein Mass Modification Assay (intact protein MALDI). The experiment is classed as binding. Summed up:
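Human Erk1 was incubated 60 min at room temperature with a 10-fold molar excess of compound, then analysed as intact protein by MALDI with sinapinic acid matrix. The centroid mass shift versus untreated protein was divided by compound molecular weight to give percent modified protein.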

The target of another experiment is MEK1 activated ERK1 (Homo sapiens (Human), UniProt P27361). Kind of experiment: Omnia continuous-read kinase assay for potency against MEK1 activated ERK1. The experiment is classed as biochemical. To be noted: MEK1 activated ERK1, WT, ATP at KM. The procedure, abridged:
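Apparent IC50 came from initial reaction slopes (RFU vs time) plotted against log inhibitor with a variable-slope fit. Reactions were started with ERK1 (4 nM final) added to 50 μM ATP, roughly at its appKM, and 10 μM Sox-conjugated ST17 peptide in 20 mM Tris pH 7.5, 5 mM MgCl2. Fluorescence was monitored every 71 seconds.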

Setting [2] is: Homo sapiens, HT-29, HT29 cells.

Chain of MEK1 activated ERK1 (P27361 whole entry): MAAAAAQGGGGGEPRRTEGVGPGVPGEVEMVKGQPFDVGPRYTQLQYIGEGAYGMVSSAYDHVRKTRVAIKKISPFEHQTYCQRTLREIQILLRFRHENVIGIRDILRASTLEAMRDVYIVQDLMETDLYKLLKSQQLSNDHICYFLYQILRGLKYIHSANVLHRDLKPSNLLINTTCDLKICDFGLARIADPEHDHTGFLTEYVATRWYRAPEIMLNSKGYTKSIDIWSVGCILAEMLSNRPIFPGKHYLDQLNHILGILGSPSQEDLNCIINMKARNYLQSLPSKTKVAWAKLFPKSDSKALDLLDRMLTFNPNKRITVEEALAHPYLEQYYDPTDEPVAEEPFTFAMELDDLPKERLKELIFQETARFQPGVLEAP
Chain of Erk1 (P27361 whole entry, looked up): as the sequence (P27361 whole entry) above

As to `C=CC(=O)Nc1cc(C)ccc1Nc1nc(Nc2cc(OC)cc(OC)c2)ncc1C(F)(F)F` [Compound I-339, N-(2-((2-((3,5-dimethoxyphenyl)amino)-5-(trifluoromethyl)pyrimidin-4-yl)amino)-5-methylphenyl)acrylamide], in experiment [1] (setting [2]), the EC50 lay within 0.101 to 0.5 µM. The “ERK1 Mass Mod (%)” value at Erk1 was “E (provided a mass modification of ≧70%)”. Further, on MEK1 activated ERK1, the half-inhibitory concentration (IC50) is > 1 µM.
In the same order, the values of `C/C=C/S(=O)(=O)Nc1cc(F)ccc1Nc1nc(N[C@H]2CCCN(C(=O)CO)C2)ncc1C(F)(F)F` [Compound I-48, (S,E)-N-(5-Fluoro-2-((2-((1-(2-hydroxyacetyl)piperidin-3-yl)amino)-5-(trifluoromethyl)pyrimidin-4-yl)amino)phenyl)prop-1-ene-1-sulfonamide] are > 1 µM, “G (proived a mass modification ≦30%)” and < 0.1 µM.
In the same order, the values of `C=CC(=O)Nc1cc(C)ccc1Nc1nc(Nc2cnnc(Cl)c2)ncc1C(F)(F)F` [Compound I-331, N-(2-((2-((6-chloropyridazin-4-yl)amino)-5-(trifluoromethyl)pyrimidin-4-yl)amino)-5-methylphenyl)acrylamide] are 0.101 to 0.5 µM, “E (provided a mass modification of ≧70%)” and > 1 µM.
As to `COc1cc(Nc2ncc(C(F)(F)F)c(Nc3ccc(C)cc3N)n2)c(C)cn1` [Compound I-353, N^4-(2-amino-4-methylphenyl)-N^2-(2-methoxy-5-methylpyridin-4-yl)-5-(trifluoromethyl)pyrimidine-2,4-diamine], in experiment [1] (setting [2]), the EC50 is > 1 µM. In addition, the “ERK1 Mass Mod (%)” value on Erk1 was “G (proived a mass modification ≦30%)”. Moreover, on MEK1 activated ERK1, the 50% inhibitory concentration (IC50) is > 1 µM.
In the case of `CC(C)=CC(=O)c1ccccc1Oc1nc(Nc2ccc(F)cc2C)ncc1C(N)=O` [Compound I-272, 2-((4-fluoro-2-methylphenyl)amino)-4-(2-(3-methylbut-2-enoyl)phenoxy)pyrimidine-5-carboxamide], the concentration giving a half-maximal response (EC50) in experiment [1] (setting [2]) was > 1 µM. In addition, at Erk1, the “ERK1 Mass Mod (%)” value was “G (proived a mass modification ≦30%)”. Further, the IC50 on MEK1 activated ERK1 was > 1 µM.
Consider `CCC(=O)Nc1ccccc1Nc1nc(Nc2ccc(N(CC)C(C)=O)cc2C#N)ncc1Cl` [Compound I-316, N-(2-((5-chloro-2-((2-cyano-4-(N-ethylacetamido)phenyl)amino)pyrimidin-4-yl)amino)phenyl)propionamide], for which the concentration for a half-maximal effect (EC50) in experiment [1] (setting [2]) is > 1 µM. For the same compound, the concentration for half-maximal inhibition (IC50) at MEK1 activated ERK1 is > 1 µM.
In the case of `C=CC(=O)Nc1ccccc1Nc1nc(N[C@H]2CC[C@H](C(N)=O)CC2)ncc1C(F)(F)F` [Compound I-16, 4-((4-((2-acrylamidophenyl)amino)-5-(trifluoromethyl)pyrimidin-2-yl)amino) -trans-cyclohexanecarboxamide], the EC50 in experiment [1] (setting [2]) is 0.501 to 0.999 µM. For the same compound, the “ERK1 Mass Mod (%)” value at Erk1 is recorded as “E (provided a mass modification of ≧70%)”.
As to `C=CC(=O)Nc1ccccc1Nc1nc(Nc2cc(OC)nc(N3CCN(C(C)=O)CC3)c2)ncc1C(F)(F)F` [Compound I-92], the concentration for a half-maximal effect (EC50) in experiment [1] (setting [2]) is < 0.1 µM. Also, the “ERK1 Mass Mod (%)” value at Erk1 is listed as “E (provided a mass modification of ≧70%)”.
In the same order, the values of `C=CC(=O)Nc1cc(C)ccc1Nc1nc(N[C@H]2CCN(S(=O)(=O)C=C)C2)ncc1C(F)(F)F` [Compound I-279, (S)—N-(5-Methyl-2-((5-(trifluoromethyl)-2-((1-(vinylsulfonyl)pyrrolidin-3-yl)amino)pyrimidin-4-yl)amino)phenyl)acrylamide] are > 1 µM and “E (provided a mass modification of ≧70%)”.
Consider `C=CC(=O)Nc1ccccc1Nc1nc(N[C@H]2CC[C@H](O)CC2)ncc1C(F)(F)F` [Compound I-1, Trans-N-(2-((2-((4-hydroxycyclohexyl)amino)-5-(trifluoromethyl)pyrimidin-4-yl)amino)phenyl)acrylamide], for which the EC50 in experiment [1] (HT29 cells) was in the range of 0.101 to 0.5 µM. Also, the “ERK1 Mass Mod (%)” value on Erk1 was “G (proived a mass modification ≦30%)”.

For orientation: EC50 means the concentration giving half of the maximal effect. A word on the IC50: it is the midpoint of a concentration-inhibition curve.
